{"source": "patent US20070212408A1", "about": "“Stable Pharmaceutical Composition Containing Benzimidazole Derivatives and Method of Manufacturing the Same” (priority 2004, published 2007)", "key": {"[1]": {"assay": "Storage stability test of inclusion complexes containing lansoprazole (Test Example 1), HPLC content", "assay_type": "physicochemical", "settings": "60° C., 75% RH"}, "[2]": {"assay": "Storage stability test of inclusion complexes containing lansoprazole (Test Example 3), HPLC content", "assay_type": "physicochemical", "settings": "60° C., 75% RH, relative to initial content"}}}
{"smiles": "Cc1c(OCC(F)(F)F)ccnc1C[S+]([O-])c1nc2ccccc2[nH]1", "note": "(stereo not drawn) [lansoprazole]", "values": [{"measurement": "Content after 1 wk (%)", "setting": "[1]; 1 wk, relative to initial content, HPLC", "value": 96.62, "unit": "%"}, {"measurement": "Content after 2 wk (%)", "setting": "[1]; 2 wk, relative to initial content, HPLC", "value": 76.88, "unit": "%"}, {"measurement": "Color Change after 4 wk", "setting": "[1]; 4 wk", "value": "Dark brown"}, {"measurement": "Content after 4 wk (%)", "setting": "[1]; 4 wk, relative to initial content, HPLC", "value": "Not detected"}, {"measurement": "Content after 1 wk (%)", "setting": "[2]; 1 wk", "value": 96.62, "unit": "%"}, {"measurement": "Content after 2 wk (%)", "setting": "[2]; 2 wk", "value": 76.88, "unit": "%"}]}
